Values of other authors as cited in patent publication US20240277629A1, “USE OF THYROID HORMONE T4 IN A HIGH VERSATILITY TREATMENT IN PATIENTS TAKING PROTON PUMP INHIBITORS” (ALTERGON S.A., priority 2021, published 2024).

Details: patients under therapy with PPIs (Centanni et al. 2006)

For `N[C@@H](Cc1cc(I)c(Oc2cc(I)c(O)c(I)c2)c(I)c1)C(=O)O` [T4, levothyroxine], the “Increase of daily dose of T4 needed to obtain the desired blood levels of thyroid hormone” value is given as 37%.
